Source: ChEMBL document CHEMBL1149348, “Tubulin polymerization inhibitors with a fluorinated phthalimide skeleton derived from thalidomide” (Bioorg Med Chem Lett, 2006)
Calls of active or inactive are those of the source. The rule behind the calls is not given here.

Experiments:
Tubulin (Sus scrofa) [1] = target: T1, Tubulin (Sus scrofa) (UniProt P02554+P02550); test: Inhibition of tubulin polymerization in porcine brain at 20 uM
Tubulin = Tubulin (Sus scrofa, UniProt P02554+P02550); test: Inhibition of tubulin polymerization in porcine brain
Tubulin (Sus scrofa) [2] = target: T1, Tubulin (Sus scrofa); test: Inhibition of tubulin depolymerization in porcine brain at 10 uM

T1 sequence (P02550 whole entry, looked up): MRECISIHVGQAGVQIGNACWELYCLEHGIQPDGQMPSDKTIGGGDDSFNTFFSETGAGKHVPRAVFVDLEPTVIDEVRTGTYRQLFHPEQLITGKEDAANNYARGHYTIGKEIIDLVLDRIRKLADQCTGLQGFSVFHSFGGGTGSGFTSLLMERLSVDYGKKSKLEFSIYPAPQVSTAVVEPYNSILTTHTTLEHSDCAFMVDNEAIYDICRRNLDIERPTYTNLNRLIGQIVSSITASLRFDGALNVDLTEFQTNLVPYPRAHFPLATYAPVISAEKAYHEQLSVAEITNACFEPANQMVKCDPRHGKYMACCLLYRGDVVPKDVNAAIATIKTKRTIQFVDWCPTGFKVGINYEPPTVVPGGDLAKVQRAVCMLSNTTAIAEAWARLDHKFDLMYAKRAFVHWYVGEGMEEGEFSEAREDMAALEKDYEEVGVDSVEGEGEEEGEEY
T1 sequence (P02554 whole entry, looked up): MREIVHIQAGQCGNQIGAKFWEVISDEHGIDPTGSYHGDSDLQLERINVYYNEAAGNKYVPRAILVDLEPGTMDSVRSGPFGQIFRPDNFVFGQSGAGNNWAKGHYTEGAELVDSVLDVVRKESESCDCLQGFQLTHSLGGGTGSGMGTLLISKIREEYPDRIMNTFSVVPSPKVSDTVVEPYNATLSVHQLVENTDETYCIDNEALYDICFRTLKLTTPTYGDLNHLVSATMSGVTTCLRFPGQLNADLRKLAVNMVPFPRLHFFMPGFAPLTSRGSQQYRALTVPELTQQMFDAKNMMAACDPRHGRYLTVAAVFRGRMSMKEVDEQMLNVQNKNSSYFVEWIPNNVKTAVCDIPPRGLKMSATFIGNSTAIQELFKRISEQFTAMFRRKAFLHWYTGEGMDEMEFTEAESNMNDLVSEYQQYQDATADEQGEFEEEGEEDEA

Compound | inhibition (Tubulin (Sus scrofa) [1]) | IC50 (Tubulin) | Activity (Tubulin (Sus scrofa) [2])
CCCc1cccc(CCC)c1N1C(=O)c2c(Cl)c(Cl)c(Cl)c(Cl)c2C1=O | 0% |  | 
CC(C)c1ccc([N+](=O)[O-])c(C(C)C)c1N1C(=O)c2c(F)c(F)c(F)c(F)c2C1=O | 10% |  | 
CC(C)c1cccc(C(C)C)c1N1C(=O)c2ccccc2C1=O | 3% |  | 
CCc1cccc(CC)c1N1C(=O)c2c(F)c(F)c(F)c(F)c2C1=O | 18% |  | 
CC(C)c1cccc(C(C)C)c1N1C(=O)c2ccc(F)cc2C1=O | 9% |  | 
Cc1cccc(C)c1N1C(=O)c2c(F)c(F)c(F)c(F)c2C1=O | 10% |  | 
CC(C)c1cccc(C(C)C)c1N1C(=O)c2cc(F)c(F)cc2C1=O | 8% |  | 
CC(C)c1cccc(C(C)C)c1N1C(=O)c2cccc(F)c2C1=O | 73% | 17 µM | 
CC(C)c1cccc(C(C)C)c1N1C(=O)c2c(F)ccc(F)c2C1=O | 78% | 7.8 µM | inactive
O=C1c2c(F)c(F)c(F)c(F)c2C(=O)N1c1ccccc1 | 7% |  | 
CO[C@@H](/C(C)=C/C=C/C(C)=C/c1coc(C)n1)[C@@H](C)[C@@H]1C[C@H](O)[C@@]2(C)O[C@@H]2/C=C/[C@@H](C)[C@H]2C[C@H](CC(=O)O2)C[C@@H]2O[C@H]2C(=O)O1 | 81% |  | 
CC(C)c1cccc(C(C)C)c1N1C(=O)c2ccc(O)cc2C1=O |  | 6.9 µM | 
CC(C)c1ccccc1N1C(=O)c2c(F)c(F)c(F)c(F)c2C1=O | 10% |  | 
O=C1c2c(Cl)c(Cl)c(Cl)c(Cl)c2C(=O)N1c1ccccc1 | 6% |  | 
CC(C)c1cc(Br)cc(C(C)C)c1N1C(=O)c2c(F)c(F)c(F)c(F)c2C1=O | 11% |  | 
CC(C)c1cccc(C(C)C)c1N1C(=O)c2c(F)c(F)c(F)c(F)c2C1=O | 71% | 16 µM | 
Cc1cccc(C)c1N1C(=O)c2c(Cl)c(Cl)c(Cl)c(Cl)c2C1=O | 0% |  | 
